Legend:
[1] = test system: barnyardgrass; experiment: Test C flooded paddy test; type: in vivo, Echinochloa crus-galli; settings: for Plant response rating, Barnyardgrass: 500 g ai/ha, visual rating after 12 to 14 days
Outline: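 Greenhouse test with a 12–14 day hold after application and visual comparison with controls. Emerged plants were 1- to 4-leaf stage (2–18 cm) when sprayed postemergence, and the paddy barnyardgrass was at 2 leaves under flooded conditions. 100 = complete control.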

[2] = test system: ducksalad; experiment: Test B flooded paddy test; type: in vivo, Heteranthera limosa; settings: 1000 g ai/ha, scale 0 to 100 (0 no effect, 100 complete control)
Outline: (§1)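 Plants grow to 1- to 4-leaf stage (2–18 cm) for postemergence spraying, or to 2-leaf stage for the paddy test. Formulated compound is applied. Greenhouse holding lasts 13–15 days. Response is scored visually relative to controls, 0 no effect to 100 complete control; a dash means no result.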

[3] = test system: small flower umbrella sedge; experiment: Test B flooded paddy test; type: in vivo, Cyperus difformis; settings: 1000 g ai/ha, scale 0 to 100 (0 no effect, 100 complete control)
Outline: as §1

[4] = test system: giant foxtail; experiment: Test B pre-/postemergence herbicide test; type: in vivo, Setaria faberi; settings: for Plant response rating (0 to 100 scale), Foxtail, Giant: 0 is no effect; for Foxtail, Giant plant response rating: postemergence
Outline: (§2)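 Test chemicals in a non-phytotoxic solvent mixture with surfactant were applied preemergence to seeded species and postemergence to plants 2-18 cm tall (1- to 4-leaf stage); rice and barnyardgrass were also tested in a flooded paddy at the 2-leaf stage. Visual rating versus controls after 13-15 days in greenhouse, scale 0 (no effect) to 100 (complete control).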

[5] = test system: rice; experiment: Test C flooded paddy test; type: in vivo, Oryza sativa; settings: for Plant response rating, Rice: 500 g ai/ha, visual rating after 12 to 14 days
Outline: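 Plants were grown to the 1- to 4-leaf stage (2–18 cm) and then treated postemergence, or grown to the 2-leaf stage for the flooded paddy test. They were held in a greenhouse for 12 to 14 days and then scored by eye against controls, where 0 is no effect and 100 is complete control.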

[6] = test system: barnyardgrass; experiment: Test B pre-/postemergence herbicide test; type: in vivo, Echinochloa crus-galli; settings: for Plant response rating (0 to 100 scale), Barnyardgrass: 0 is no effect; for Barnyardgrass plant response rating: postemergence
Outline: (§3)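 Species tested were Echinochloa crus-galli, Ipomoea coccinea, Xanthium strumarium and Oryza sativa, treated both before emergence and at the 1- to 4-leaf stage; rice and barnyardgrass were also tested under flooding at 2 leaves. Greenhouse incubation lasted 13–15 days before visual 0–100 scoring.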

[7] = test system: rice; experiment: Test B flooded paddy test; type: in vivo, Oryza sativa; settings: 1000 g ai/ha, scale 0 to 100 (0 no effect, 100 complete control)
Outline: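 Paddy species grown to the 2-leaf stage under flooding; blackgrass sprayed postemergence at 2–18 cm (1- to 4-leaf stage). Plants kept in a greenhouse for 13 to 15 days, then visually rated against controls on 0 (no effect) to 100 (complete control).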

[8] = test system: cocklebur; experiment: Test B pre-/postemergence herbicide test; type: in vivo, Xanthium strumarium; settings: for Plant response rating (0 to 100 scale), Cocklebur: 0 is no effect; for Cocklebur plant response rating: postemergence
Outline: as §3

[9] = test system: Surinam grass; experiment: Test B pre-/postemergence herbicide test; type: in vivo, Urochloa decumbens; settings: for Plant response rating (0 to 100 scale), Surinam Grass: 0 is no effect
Outline: as §2

[10] = test system: wheat; experiment: Test B postemergence herbicide test; type: in vivo, Triticum aestivum; set-up: key to Wheat plant response rating: 0 = no effect, 100 = complete control
Outline: (§4)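 Formulated test chemicals went onto postemergence plants measuring 2 to 18 cm, at one to four leaves. For the paddy assay, species had reached two leaves. Scoring took place 13–15 days later by eye, relative to untreated plants, using 0 for no effect up to 100 for full control.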

[11] = test system: blackgrass; experiment: Test B postemergence herbicide test; type: in vivo, Alopecurus myosuroides; settings: postemergence
Outline: as §1

[12] = test system: wild oat; experiment: Test B postemergence herbicide test; type: in vivo, Avena fatua
Outline: as §4

[13] = test system: morningglory; experiment: Test B pre-/postemergence herbicide test; type: in vivo, Ipomoea coccinea; settings: for Plant response rating (0 to 100 scale), Morningglory: 0 is no effect
Outline: as §3

[14] = test system: velvetleaf; experiment: Test B pre-/postemergence herbicide test; type: in vivo, Abutilon theophrasti; settings: for Plant response rating (0 to 100 scale), Velvetleaf: 0 is no effect, preemergence
Outline: as §2

[15] = test system: corn; experiment: Test B pre-/postemergence herbicide test; type: in vivo, Zea mays; settings: for Plant response rating (0 to 100 scale), Corn: 0 is no effect; for Corn plant response rating: postemergence
Outline: as §2

[16] = test system: large crabgrass; experiment: Test B pre-/postemergence herbicide test; type: in vivo, Digitaria sanguinalis; settings: for Plant response rating (0 to 100 scale), Crabgrass, Large: 0 is no effect, preemergence; for Crabgrass, Large plant response rating: postemergence
Outline: as §2

[17] = test system: pigweed; experiment: Test B pre-/postemergence herbicide test; type: in vivo, Amaranthus retroflexus; settings: for Plant response rating (0 to 100 scale), Pigweed: 0 is no effect
Outline: as §2

[18] = test system: barnyardgrass; experiment: Test B flooded paddy test; type: in vivo, Echinochloa crus-galli; settings: 1000 g ai/ha, scale 0 to 100 (0 no effect, 100 complete control)
Outline: as §1

[19] = test system: lambsquarters; experiment: Test B pre-/postemergence herbicide test; type: in vivo, Chenopodium album; settings: for Plant response rating (0 to 100 scale), Lambsquarters: 0 is no effect
Outline: as §2

[20] = test system: ducksalad; experiment: Test C flooded paddy test; type: in vivo, Heteranthera limosa; settings: for Plant response rating, Ducksalad: 500 g ai/ha, visual rating after 12 to 14 days
[21] = test system: smallflower umbrella sedge; experiment: Test C flooded paddy test; type: in vivo, Cyperus difformis; settings: for Plant response rating, Sedge, Umbrella: 500 g ai/ha, visual rating after 12 to 14 days
[22] = 62 g ai/ha, scale 0 to 100 (0 no effect, 100 complete control)
[23] = 125 g ai/ha, scale 0 to 100 (0 no effect, 100 complete control)
[24] = 250 g ai/ha, scale of 0 to 100, 0 is no effect, 100 is complete control
[25] = scale 0 to 100 (0 no effect, 100 complete control)
[26] = 125 g ai/ha, 100 is complete control, preemergence
[27] = 125 g ai/ha, visual rating, scale 0 (no effect) to 100 (complete control)
[28] = 500 g ai/ha, scale 0 to 100, 0 is no effect, 100 is complete control
[29] = 125 g ai/ha, visual rating, scale 0 (no effect) to 100 (complete control), postemergence
[30] = Postemergence, 500 g ai/ha, scale 0 (no effect) to 100 (complete control)
[31] = 125 g ai/ha, 100 is complete control
[32] = 500 g ai/ha, visual rating, 0 = no effect, 100 = complete control, preemergence
[33] = postemergence, 500 g ai/ha, scale 0 to 100, 0 is no effect, 100 is complete control

CCc1nn(C(C)(C)C)nc1C(=O)Nc1cc(C(=O)N(C)CC)ccc1F [Compound 388]
Barnyardgrass plant response rating [1, 22]: 0 | Barnyardgrass plant response rating [1, 23]: 10 | Barnyardgrass plant response rating [1, 24]: 35 | Plant response rating, Barnyardgrass [1, 25]: 65 | Ducksalad plant response rating [2]: 80 | Sedge, Umbrella plant response rating [3]: 70 | Plant response rating (0 to 100 scale), Foxtail, Giant [4, 26]: 20 | Foxtail, Giant plant response rating [4, 27]: 10 | Foxtail, Giant plant response rating [4, 28]: 30 | Rice plant response rating ([5]; 62 g ai/ha, scale 0 to 100): 15 | Rice plant response rating [5, 23]: 55 | Rice plant response rating [5, 24]: 65 | Plant response rating, Rice [5, 25]: 70 | Plant response rating (0 to 100 scale), Barnyardgrass [6, 26]: 50 | Barnyardgrass plant response rating [6, 27]: 0 | Barnyardgrass plant response rating [6, 28]: 10 | Rice plant response rating [7]: 70 | Plant response rating (0 to 100 scale), Cocklebur [8, 26]: 0 | Cocklebur plant response rating [8, 27]: 10 | Cocklebur plant response rating [8, 28]: 20 | Plant response rating (0 to 100 scale), Surinam Grass [9, 26]: 20 | Surinam Grass plant response rating [9, 29]: 10 | Surinam Grass plant response rating [9, 30]: 20 | Wheat plant response rating [10, 29]: 0 | Wheat plant response rating ([10]; 500 g ai/ha, scale 0 to 100, 0 no effect, 100 complete control, preemergence): 90 | Wheat plant response rating [10, 30]: 10 | Blackgrass plant response rating [11, 27]: 0 | Blackgrass plant response rating [11, 28]: 20 | Oat, Wild plant response rating [12, 29]: 0 | Oat, Wild plant response rating [12, 30]: 10 | Plant response rating (0 to 100 scale), Morningglory [13, 26]: 0 | Morningglory plant response rating [13, 29]: 10 | Morningglory plant response rating [13, 30]: 50 | Plant response rating (0 to 100 scale), Velvetleaf [14, 31]: 10 | Velvetleaf plant response rating [14, 29]: 20 | Velvetleaf plant response rating [14, 30]: 40 | Plant response rating (0 to 100 scale), Corn [15, 26]: 30 | Corn plant response rating [15, 27]: 10 | Corn plant response rating [15, 28]: 20 | Plant response rating (0 to 100 scale), Crabgrass, Large [16, 31]: 80 | Crabgrass, Large plant response rating [16, 27]: 20 | Crabgrass, Large plant response rating [16, 28]: 20 | Plant response rating (0 to 100 scale), Pigweed [17, 26]: 80 | Pigweed plant response rating [17, 29]: 40 | Pigweed plant response rating [17, 30]: 50 | Barnyardgrass plant response rating [18]: 70 | Plant response rating (0 to 100 scale), Lambsquarters [19, 26]: 90 | Lambsquarters plant response rating [19, 29]: 60 | Lambsquarters plant response rating [19, 30]: 70 | Ducksalad plant response rating ([20]; 62 g ai/ha, scale 0 to 100): 0 | Ducksalad plant response rating [20, 23]: 0 | Ducksalad plant response rating [20, 24]: 45 | Plant response rating, Ducksalad [20, 25]: 80 | Sedge, Umbrella plant response rating ([21]; 62 g ai/ha, scale 0 to 100): 65 | Sedge, Umbrella plant response rating [21, 23]: 70 | Sedge, Umbrella plant response rating [21, 24]: 75 | Plant response rating, Sedge, Umbrella [21, 25]: 80

Cc1nn(C(C)(C)C)cc1C(=O)Nc1cc(C(=O)N(C)C)ccc1F [Compound 344]
Barnyardgrass plant response rating [1, 22]: 0 | Barnyardgrass plant response rating [1, 23]: 0 | Barnyardgrass plant response rating [1, 24]: 0 | Plant response rating, Barnyardgrass [1, 25]: 0 | Ducksalad plant response rating [2]: 80 | Sedge, Umbrella plant response rating [3]: 80 | Plant response rating (0 to 100 scale), Foxtail, Giant [4, 26]: 10 | Foxtail, Giant plant response rating [4, 27]: 10 | Plant response rating, Foxtail, Giant [4, 32]: 60 | Foxtail, Giant plant response rating [4, 28]: 10 | Rice plant response rating ([5]; 62 g ai/ha, scale 0 to 100): 0 | Rice plant response rating [5, 23]: 0 | Rice plant response rating [5, 24]: 0 | Plant response rating, Rice [5, 25]: 15 | Plant response rating (0 to 100 scale), Barnyardgrass [6, 26]: 20 | Barnyardgrass plant response rating [6, 27]: 0 | Plant response rating, Barnyardgrass [6, 32]: 70 | Barnyardgrass plant response rating [6, 28]: 10 | Rice plant response rating [7]: 70 | Plant response rating (0 to 100 scale), Cocklebur [8, 26]: 20 | Cocklebur plant response rating [8, 27]: 0 | Plant response rating, Cocklebur [8, 32]: 70 | Cocklebur plant response rating [8, 28]: 10 | Plant response rating (0 to 100 scale), Surinam Grass [9, 26]: 30 | Surinam Grass plant response rating [9, 29]: 0 | Plant response rating, Surinam Grass [9, 32]: 100 | Surinam Grass plant response rating [9, 33]: 10 | Wheat plant response rating [10, 29]: 0 | Wheat plant response rating [10, 33]: 10 | Blackgrass plant response rating [11, 27]: 0 | Blackgrass plant response rating [11, 28]: 0 | Oat, Wild plant response rating [12, 29]: 0 | Oat, Wild plant response rating [12, 33]: 0 | Plant response rating (0 to 100 scale), Morningglory [13, 26]: 10 | Morningglory plant response rating [13, 29]: 10 | Plant response rating, Morningglory [13, 32]: 80 | Morningglory plant response rating [13, 33]: 50 | Plant response rating (0 to 100 scale), Velvetleaf [14, 31]: 40 | Velvetleaf plant response rating [14, 29]: 20 | Velvetleaf plant response rating [14, 33]: 30 | Plant response rating (0 to 100 scale), Corn [15, 26]: 10 | Corn plant response rating [15, 27]: 10 | Plant response rating, Corn [15, 32]: 90 | Corn plant response rating [15, 28]: 10 | Plant response rating (0 to 100 scale), Crabgrass, Large [16, 31]: 60 | Crabgrass, Large plant response rating [16, 27]: 0 | Crabgrass, Large plant response rating [16, 28]: 10 | Plant response rating (0 to 100 scale), Pigweed [17, 26]: 90 | Pigweed plant response rating [17, 29]: 20 | Plant response rating, Pigweed [17, 32]: 90 | Pigweed plant response rating [17, 33]: 50 | Barnyardgrass plant response rating [18]: 60 | Plant response rating (0 to 100 scale), Lambsquarters [19, 26]: 90 | Lambsquarters plant response rating [19, 29]: 20 | Plant response rating, Lambsquarters [19, 32]: 100 | Lambsquarters plant response rating [19, 33]: 40 | Ducksalad plant response rating ([20]; 62 g ai/ha, scale 0 to 100): 0 | Ducksalad plant response rating [20, 23]: 0 | Ducksalad plant response rating [20, 24]: 20 | Plant response rating, Ducksalad [20, 25]: 45 | Sedge, Umbrella plant response rating ([21]; 62 g ai/ha, scale 0 to 100): 0 | Sedge, Umbrella plant response rating [21, 23]: 75 | Sedge, Umbrella plant response rating [21, 24]: 75 | Plant response rating, Sedge, Umbrella [21, 25]: 85

Source: patent publication US20060069132A1, “Azolecarboxamide herbicides” (priority 2004, published 2006)
